According to ChEMBL document CHEMBL1201862, “PubChem BioAssay data set” (2004):
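Results reflect a 48-hour exposure of cells in 96-well plates to compound at five concentrations. GI50 is the concentration that inhibits growth by half.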 The source made the active and inactive calls. No stated cut-off is given here; in the data, active = GI50 up to about 1.1 µM and inactive = higher.

Assays:
Assay in all cases: NCI anticancer screen, dose series, 48 h
SK-MEL-5 = tested on: SK-MEL-5
SR = tested on: SR
CCRF-CEM = tested on: CCRF-CEM
K562 = tested on: K562
COLO 205 = tested on: COLO 205
BT-549 = tested on: BT-549
OVCAR-4 = tested on: OVCAR-4
DU-145 = tested on: DU-145
CAKI-1 = tested on: CAKI-1
U-251 = tested on: U-251
HOP-62 = tested on: HOP-62
NCI-H522 = tested on: NCI-H522
SNB-19 = tested on: SNB-19
A549 = tested on: A549
SF-268 = tested on: SF-268
ACHN = tested on: ACHN
UO-31 = tested on: UO-31
HCT-15 = tested on: HCT-15
MOLT-4 = tested on: MOLT-4
TK-10 = tested on: TK-10
IGROV-1 = tested on: IGROV-1
LOX IMVI = tested on: LOX IMVI
MCF7 = tested on: MCF7
NCI-H460 = tested on: NCI-H460
NCI/ADR-RES = tested on: NCI/ADR-RES
Hs-578T = tested on: Hs-578T
HOP-92 = tested on: HOP-92
SK-OV-3 = tested on: SK-OV-3
A498 = tested on: A498
OVCAR-5 = tested on: OVCAR-5
NCI-H23 = tested on: NCI-H23
MDA-MB-231 = tested on: MDA-MB-231
SN12C = tested on: SN12C
OVCAR-8 = tested on: OVCAR-8
HL-60 = tested on: HL-60
MDA-MB-435 = tested on: MDA-MB-435
RPMI-8226 = tested on: RPMI-8226
SK-MEL-2 = tested on: SK-MEL-2
M14 = tested on: M14
RXF 393 = tested on: RXF 393
MDA-N = tested on: MDA-N
SW-620 = tested on: SW-620
KM12 = tested on: KM12
SF-295 = tested on: SF-295
SK-MEL-28 = tested on: SK-MEL-28
T47D = tested on: T47D
786-0 = tested on: 786-0
Malme-3M = tested on: Malme-3M
SNB-75 = tested on: SNB-75
HCT-116 = tested on: HCT-116
HCC 2998 = tested on: HCC 2998
EKVX = tested on: EKVX
NCI-H226 = tested on: NCI-H226
UACC-257 = tested on: UACC-257
UACC-62 = tested on: UACC-62
OVCAR-3 = tested on: OVCAR-3
PC-3 = tested on: PC-3
HT-29 = tested on: HT-29
SF-539 = tested on: SF-539

**Q.** Which results are given for `C=C1C[C@@H]2CC[C@@]34CC5O[C@H]6C(O[C@H]7CC[C@H](CC(=O)O[C@@H]8[C@@H](C)[C@@H]9O[C@@H]%10C[C@]%11(C[C@@H]%12O[C@]%13(C[C@H](C)[C@@H]%14O[C@@H]%15CC(C(O)CO)O[C@@H]%15C[C@@H]%14O%13)C[C@H](C)[C@@H]%12O%11)O[C@@H]%10C[C@@H]9O[C@H]8CC8O[C@@H](CC[C@@H]1O2)C[C@@H](C)C8(O)CO)O[C@@H]7[C@@H]6O3)[C@H]5O4` (stereo not given in full)?
**A.** GI50 (SK-MEL-5): 0.624 µM (active); GI50 (SR): > 0.625 µM (active); GI50 (CCRF-CEM): > 1 µM (active); GI50 (K562): > 0.933 µM (active); GI50 (COLO 205): > 0.65 µM (active); GI50 (BT-549): 0.00891 µM (active); GI50 (OVCAR-4): > 1 µM (active); GI50 (DU-145): > 0.916 µM (active); GI50 (CAKI-1): > 1 µM (active); GI50 (U-251): > 1 µM (active); GI50 (HOP-62): > 1 µM (active); GI50 (NCI-H522): 0.184 µM (active); GI50 (SNB-19): > 1 µM (active); GI50 (A549): > 0.891 µM (active); GI50 (SF-268): > 1 µM (active); GI50 (ACHN): > 1 µM (active); GI50 (UO-31): > 1 µM (active); GI50 (HCT-15): > 0.638 µM; GI50 (MOLT-4): > 1 µM (active); GI50 (TK-10): > 0.45 µM (active); GI50 (IGROV-1): 0.516 µM (active); GI50 (LOX IMVI): 0.48 µM (active); GI50 (MCF7): 0.579 µM (active); GI50 (NCI-H460): 0.53 µM (active); GI50 (NCI/ADR-RES): > 1 µM (active); GI50 (Hs-578T): 0.0627 µM (active); GI50 (HOP-92): > 0.615 µM (active); GI50 (SK-OV-3): > 1 µM (active); GI50 (A498): > 1 µM (active); GI50 (OVCAR-5): > 1 µM (active); GI50 (NCI-H23): > 0.473 µM (active); GI50 (MDA-MB-231): > 1 µM (active); GI50 (SN12C): > 1 µM (active); GI50 (OVCAR-8): > 1 µM (active); GI50 (HL-60): > 1 µM (active); GI50 (MDA-MB-435): 0.294 µM (active); GI50 (RPMI-8226): > 0.849 µM (active); GI50 (SK-MEL-2): > 0.859 µM (active); GI50 (M14): > 0.944 µM (active); GI50 (RXF 393): 0.516 µM (active); GI50 (MDA-N): 0.288 µM (active); GI50 (SW-620): > 0.736 µM (active); GI50 (KM12): > 0.726 µM (active); GI50 (SF-295): > 0.796 µM (active); GI50 (SK-MEL-28): > 0.959 µM (active); GI50 (T47D): > 1 µM (active); GI50 (786-0): 0.804 µM (active); GI50 (Malme-3M): 0.394 µM (active); GI50 (SNB-75): 0.294 µM (active); GI50 (HCT-116): 0.627 µM (active); GI50 (HCC 2998): > 1 µM (active); GI50 (EKVX): > 1 µM (active); GI50 (NCI-H226): 0.986 µM (active); GI50 (UACC-257): > 1 µM (active); GI50 (UACC-62): 0.481 µM (active); GI50 (OVCAR-3): 0.594 µM (active); GI50 (PC-3): 0.995 µM (active)

**Q.** Which GI50 (SK-MEL-5) does the source give for `CC(O)C1(CNc2cc(Cl)nc(N)n2)CCCCC1` (stereo not given) here?
**A.** Its GI50 is 45.6 µM (inactive).

**Q.** And the GI50 (SR)?
**A.** Its GI50 is 66.1 µM (inactive).

**Q.** And the GI50 (CCRF-CEM)?
**A.** Its GI50 is 97.5 µM (inactive).

**Q.** What about the GI50 (K562) of the same molecule?
**A.** The GI50 was 69.3 µM (inactive).

**Q.** And the GI50 (COLO 205)?
**A.** The GI50 was > 100 µM (inactive).

**Q.** And the GI50 (BT-549)?
**A.** The GI50 was 70.1 µM (inactive).

**Q.** And the GI50 (OVCAR-4)?
**A.** Its GI50 is 37.3 µM (inactive).

**Q.** And the GI50 (DU-145)?
**A.** The GI50 was > 100 µM (inactive).

**Q.** And the GI50 (CAKI-1)?
**A.** Its GI50 is > 100 µM (inactive).

**Q.** What about the GI50 (U-251) of the same molecule?
**A.** The GI50 was > 100 µM (inactive).

**Q.** And the GI50 (HOP-62)?
**A.** Its GI50 is > 100 µM (inactive).

**Q.** What about the GI50 (NCI-H522) of the same molecule?
**A.** Its GI50 is 55.7 µM (inactive).

**Q.** What about the GI50 (SNB-19) of the same molecule?
**A.** The GI50 was > 100 µM (inactive).

**Q.** And the GI50 (A549)?
**A.** Its GI50 is 77.6 µM (inactive).

**Q.** What about the GI50 (SF-268) of the same molecule?
**A.** Its GI50 is > 100 µM (inactive).

**Q.** And the GI50 (ACHN)?
**A.** The GI50 was > 100 µM (inactive).

**Q.** What about the GI50 (UO-31) of the same molecule?
**A.** Its GI50 is 59.2 µM (inactive).

**Q.** And the GI50 (HCT-15)?
**A.** The GI50 was > 100 µM.

**Q.** And the GI50 (MOLT-4)?
**A.** Its GI50 is 35.6 µM (inactive).

**Q.** What about the GI50 (TK-10) of the same molecule?
**A.** Its GI50 is > 100 µM (inactive).

**Q.** And the GI50 (IGROV-1)?
**A.** Its GI50 is > 100 µM (inactive).

**Q.** What about the GI50 (LOX IMVI) of the same molecule?
**A.** Its GI50 is 91 µM (inactive).

**Q.** And the GI50 (HT-29)?
**A.** Its GI50 is > 100 µM (inactive).

**Q.** And the GI50 (MCF7)?
**A.** Its GI50 is 82.2 µM (inactive).

**Q.** And the GI50 (SF-539)?
**A.** The GI50 was > 100 µM (inactive).

**Q.** And the GI50 (NCI-H460)?
**A.** Its GI50 is > 100 µM (inactive).

**Q.** And the GI50 (NCI/ADR-RES)?
**A.** Its GI50 is 58.2 µM (inactive).

**Q.** What about the GI50 (Hs-578T) of the same molecule?
**A.** Its GI50 is > 100 µM (inactive).

**Q.** What about the GI50 (HOP-92) of the same molecule?
**A.** Its GI50 is 69.3 µM (inactive).

**Q.** And the GI50 (SK-OV-3)?
**A.** The GI50 was > 100 µM (inactive).

**Q.** What about the GI50 (A498) of the same molecule?
**A.** Its GI50 is 39.3 µM (inactive).

**Q.** And the GI50 (OVCAR-5)?
**A.** Its GI50 is > 100 µM (inactive).

**Q.** And the GI50 (NCI-H23)?
**A.** The GI50 was 83.6 µM (inactive).

**Q.** And the GI50 (MDA-MB-231)?
**A.** The GI50 was > 100 µM (inactive).

**Q.** And the GI50 (SN12C)?
**A.** The GI50 was 82.6 µM (inactive).

**Q.** And the GI50 (OVCAR-8)?
**A.** Its GI50 is > 100 µM (inactive).

**Q.** And the GI50 (HL-60)?
**A.** Its GI50 is 89.7 µM (inactive).

**Q.** And the GI50 (MDA-MB-435)?
**A.** Its GI50 is > 100 µM (inactive).

**Q.** And the GI50 (RPMI-8226)?
**A.** Its GI50 is 48.9 µM (inactive).

**Q.** What about the GI50 (SK-MEL-2) of the same molecule?
**A.** Its GI50 is > 100 µM (inactive).

**Q.** What about the GI50 (M14) of the same molecule?
**A.** Its GI50 is > 100 µM (inactive).

**Q.** What about the GI50 (RXF 393) of the same molecule?
**A.** Its GI50 is > 100 µM (inactive).

**Q.** And the GI50 (MDA-N)?
**A.** Its GI50 is > 100 µM (inactive).

**Q.** What about the GI50 (SW-620) of the same molecule?
**A.** The GI50 was > 100 µM (inactive).

**Q.** What about the GI50 (KM12) of the same molecule?
**A.** Its GI50 is 85.3 µM (inactive).

**Q.** What about the GI50 (SF-295) of the same molecule?
**A.** The GI50 was > 100 µM (inactive).

**Q.** And the GI50 (SK-MEL-28)?
**A.** Its GI50 is > 100 µM (inactive).

**Q.** And the GI50 (T47D)?
**A.** The GI50 was 59 µM (inactive).

**Q.** And the GI50 (786-0)?
**A.** The GI50 was > 100 µM (inactive).

**Q.** And the GI50 (Malme-3M)?
**A.** The GI50 was > 100 µM (inactive).

**Q.** What about the GI50 (SNB-75) of the same molecule?
**A.** The GI50 was 69.5 µM (inactive).

**Q.** And the GI50 (HCT-116)?
**A.** The GI50 was > 100 µM (inactive).

**Q.** What about the GI50 (EKVX) of the same molecule?
**A.** The GI50 was 58.1 µM (inactive).

**Q.** What about the GI50 (NCI-H226) of the same molecule?
**A.** Its GI50 is > 100 µM (inactive).

**Q.** What about the GI50 (UACC-257) of the same molecule?
**A.** Its GI50 is 84.9 µM (inactive).

**Q.** What about the GI50 (UACC-62) of the same molecule?
**A.** The GI50 was > 100 µM (inactive).

**Q.** And the GI50 (OVCAR-3)?
**A.** The GI50 was > 100 µM (inactive).

**Q.** And the GI50 (PC-3)?
**A.** Its GI50 is 65.6 µM (inactive).
